According to patent publication US12643876B2, “Deuterated hpki kinase inhibitor, and preparation method therefor and use thereof” (ZHUHAI YUFAN BIOTECHNOLOGIES CO., LTD, priority 2020, dated 2026):

Assays:
[1] = Solid state stability of free base crystalline form A (HPLC); assay type: physicochemical; details: 60° C./1 day, closed space
Procedure: Solid State Stability of Free Base Crystalline Form A
The XRPD patterns of an initial sample of the free base crystalline form A described above and the free base crystalline form A after 1 day of standing in a closed space at 60° C. are shown in FIG. 5, and the HPLC results are shown in Table 5.

[2] = Free base crystalline form B standing at room temperature (XRPD); assay type: physicochemical; details: closed space, 5 days
Description: The XRPD patterns of free base crystalline form B of compound A2 before and after standing at room temperature are shown in FIG. 9.

[3] = Free base crystalline form B nitrogen purging (XRPD); assay type: physicochemical; details: nitrogen purging at 30° C. for 20 minutes
[4] = microsome metabolite identification / stability, mouse liver microsomes; assay type: in vitro ADME; details: 37° C.
Procedure: (§1) The operation steps for microsome metabolite identification were as follows:
(§2) For the sample with T=60 min, 4 μL of the test sample working solution (1.0 mM), 316 μL of the liver microsome working solution (1.27 mg/mL) and 80 μL of the reduced coenzyme working solution were added sequentially to start the reaction; for the sample with T=0 min, 316 μL of the liver microsome working solution (1.27 mg/mL) was added, and 80 μL of the reduced coenzyme working solution was added to start the reaction, with no test sample incubation; after incubation at 37° C. for 60 min, 1200 μL of stop buffer was added to stop the enzymatic reaction; and for the sample with T=0 min, 4 μL of the test sample working solution (1.0 mM) was added. The sample plate was placed on a vortexer and vortexed at 600 rpm for 5 min. The mixture was centrifuged at 4000 rpm for 10 min, and the supernatant was removed, mixed and purged with nitrogen to dryness at room temperature. The resulting solution was re-dissolved with 300 μL of 10% acetonitrile (0.1% FA), the […] centrifuged at 4000 rpm for 15 min, and the supernatant was transferred to a detection plate for mass spectrometry. Mass spectrometry was performed using an LC/Q-Exactive plus. 7-ethoxycoumarin (10 μM) was selected as a positive control compound, using the procedure same as that of the compounds.

[5] = microsome metabolite identification / stability, rat liver microsomes; assay type: in vitro ADME; details: 37° C.
Procedure: as §1, §2

[6] = microsome metabolite identification / stability, beagle liver microsomes; assay type: in vitro ADME; details: 37° C.
Procedure: as §1, §2

[7] = microsome metabolite identification / stability, cynomolgus monkey liver microsomes; assay type: in vitro ADME; details: 37° C.
Procedure: as §1, §2

[8] = microsome metabolite identification / stability, human liver microsomes; assay type: in vitro ADME; details: 37° C.
Procedure: as §1, §2

Structure (SMILES) | HPLC Area (%) of peak 4 (RRT 1.06) ([1]; initial sample 0.10) [%] | HPLC Area (%) of peak 3 (RRT 1.05) ([1]; initial sample 0.22) [%] | HPLC Area (%) of peak 1 (RRT 0.95) ([1]; initial sample 0.42) [%] | HPLC Area (%) of peak 2 (RRT 1.00, main peak) ([1]; initial sample 99.26) [%] | crystalline form stability (XRPD) [2] | crystalline form stability (XRPD) [3] | remaining percentage of the parent nucleus after 60 min [4] [%] | remaining percentage of the parent nucleus after 60 min [5] [%] | remaining percentage of the parent nucleus after 60 min [6] [%] | remaining percentage of the parent nucleus after 60 min [7] [%] | remaining percentage of the parent nucleus after 60 min [8] [%]
[2H]C([2H])([2H])N1CCC(n2cc(-c3cnc(N)c(OCc4cccc(C#CC(C)(C)O)c4)c3)cn2)CC1 [4-(3-(((2-amino-S-(1-(1-trideuteromethylpiperidin-4-yl)-1H-pyrazol-4-yl)pyridin-3-yl)oxy)methyl)phenyl)-2-methylbut-3-yn-2-ol] | 0.09 | 0.17 | 0.41 | 99.33 | tendency of converting into the free base crystalline form A | conversion in crystalline forms |  |  |  |  | 
CN1CCC(n2cc(-c3cnc(N)c(OCc4cccc(C#CC(C)(C)O)c4)c3)cn2)CC1 [Compound A1, reference compound] |  |  |  |  |  |  | 1.13 | 2.44 | 0.17 | 0.36 | 43.84
[2H]C([2H])([2H])N1CCC(n2cc(-c3cnc(N)c(OCc4cccc(C#CC(C)(C)O)c4)c3)cn2)CC1 [Compound A2, 4-(3-(((2-amino-S-(1-(1-trideuteromethylpiperidin-4-yl)-1H-pyrazol-4-yl)pyridin-3-yl)oxy)methyl)phenyl)-2-methylbut-3-yn-2-ol] |  |  |  |  |  |  | 55.0 | 52.1 | 7.0 | 29.6 | 83.9
CN1CCC(c2ncc(-c3cnc(N)c(OCc4cccc(C#CC(C)(C)O)c4)c3)s2)CC1 [Compound B1, reference compound] |  |  |  |  |  |  | 1.24 | 11.21 | 0.12 | 9.11 | 51.82
[2H]C([2H])([2H])N1CCC(c2ncc(-c3cnc(N)c(OCc4cccc(C#CC(C)(C)O)c4)c3)s2)CC1 [Compound B2] |  |  |  |  |  |  | 42.8 | 43.9 | 8.9 | 23.4 | 70.4
